Paper PMC6118295 (CPT: Pharmacometrics & Systems Pharmacology, 2018)

Biological target: T1, Recombinant human CES1 (CES1b/CES1A1) (Homo sapiens, UniProt P23141)
T1 sequence (P23141 18-567): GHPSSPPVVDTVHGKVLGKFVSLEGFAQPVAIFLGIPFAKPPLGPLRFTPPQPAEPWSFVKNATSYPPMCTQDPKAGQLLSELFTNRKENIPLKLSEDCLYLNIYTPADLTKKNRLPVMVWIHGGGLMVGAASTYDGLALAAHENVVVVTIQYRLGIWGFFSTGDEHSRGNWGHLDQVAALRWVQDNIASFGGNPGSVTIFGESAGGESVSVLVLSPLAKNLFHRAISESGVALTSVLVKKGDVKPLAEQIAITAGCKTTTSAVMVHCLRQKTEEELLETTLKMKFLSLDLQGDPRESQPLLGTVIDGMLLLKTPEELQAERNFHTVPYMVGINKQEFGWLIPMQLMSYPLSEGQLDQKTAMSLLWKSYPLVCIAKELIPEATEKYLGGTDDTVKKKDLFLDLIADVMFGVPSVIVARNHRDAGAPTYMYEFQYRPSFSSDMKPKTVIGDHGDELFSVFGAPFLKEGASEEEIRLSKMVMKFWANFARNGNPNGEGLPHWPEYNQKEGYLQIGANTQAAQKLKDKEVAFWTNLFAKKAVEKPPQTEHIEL
Assay: In vitro inhibition of recombinant CES1
Type: biochemical
Details: for IC50 relative to diltiazem: recombinant CES1, fold higher than IC50 of diltiazem

| Structure (SMILES) | IC50 [µM] | IC50 relative to diltiazem |
| --- | --- | --- |
| C[C@H](CCC(=O)O)[C@H]1CC[C@H]2[C@@H]3[C@H](O)C[C@@H]4C[C@H](O)CC[C@]4(C)[C@H]3CC[C@]12C [Chenodeoxycholic acid] | 13.5 | – |
| C[C@H](CCC(=O)NCC(=O)O)[C@H]1CC[C@H]2[C@@H]3[C@H](O)C[C@@H]4C[C@H](O)CC[C@]4(C)[C@H]3CC[C@]12C [Glycochenodeoxycholic acid] | – | ~10 fold |
| C[C@H](CCC(=O)NCCS(=O)(=O)O)[C@H]1CC[C@H]2[C@@H]3[C@H](O)C[C@@H]4C[C@H](O)CC[C@]4(C)[C@H]3CC[C@]12C [Taurochenodeoxycholic acid] | – | more than fourfold higher |
| C[C@H](CCC(=O)NCCS(=O)(=O)O)[C@H]1CC[C@H]2[C@@H]3[C@H](O)C[C@@H]4C[C@H](O)CC[C@]4(C)[C@H]3C[C@H](O)[C@]12C [Taurocholic acid] | 19.5 | – |
